The source made the active and inactive calls. No cut-off for these calls is given here.
Key:
[1] = Growth inhibition of human UACC62 cells after 48 hrs by SRB assay; type: functional; settings: UACC-62, 48 h
[2] = Growth inhibition of human OVCAR8 cells after 48 hrs by SRB assay; type: functional; settings: OVCAR-8, 48 h
[3] = system: DU-145; assay: Growth inhibition of human DU145 cells after 48 hrs by SRB assay; type: functional; settings: DU-145, 48 h
[4] = system: IGROV-1; assay: Growth inhibition of human IGROV1 cells after 48 hrs by SRB assay; type: functional; settings: IGROV-1, 48 h
[5] = system: SW-620; assay: Growth inhibition of human SW620 cells after 48 hrs by SRB assay; type: functional; settings: SW-620, 48 h
[6] = Growth inhibition of human HCT15 cells after 48 hrs by SRB assay; type: functional; settings: HCT-15, 48 h
[7] = system: MDA-MB-435; assay: Growth inhibition of human MDA-MB-435 cells after 48 hrs by SRB assay; type: functional; settings: MDA-MB-435, 48 h
[8] = system: MCF7; assay: Cell cycle arrest in human MCF7 cells assessed as accumulation at S phase at 4 uM after 24 hrs by propidium iodide staining-based flow cytometry (reference value: 20.17%); type: functional
[9] = system: HOP-62; assay: Growth inhibition of human HOP62 cells after 48 hrs by SRB assay; type: functional; settings: HOP-62, 48 h
[10] = system: COLO 205; assay: Growth inhibition of human COLO205 cells after 48 hrs by SRB assay; type: functional; settings: COLO 205, 48 h
[11] = system: ACHN; assay: Growth inhibition of human ACHN cells after 48 hrs by SRB assay; type: functional
[12] = system: HCT-116; assay: Growth inhibition of human HCT116 cells after 48 hrs by SRB assay; type: functional; settings: HCT-116, 48 h
[13] = Growth inhibition of human HCC2998 cells after 48 hrs by SRB assay; type: functional; settings: HCC 2998, 48 h
[14] = system: MDA-MB-231; assay: Growth inhibition of human MDA-MB-231 cells after 48 hrs by SRB assay; type: functional; settings: MDA-MB-231, 48 h
[15] = system: NCI-H226; assay: Growth inhibition of human NCI-H226 cells after 48 hrs by SRB assay; type: functional; settings: NCI-H226, 48 h
[16] = system: NCI-H460; assay: Growth inhibition of human NCI-H460 cells after 48 hrs by SRB assay; type: functional; settings: NCI-H460, 48 h
[17] = Growth inhibition of human EKVX cells after 48 hrs by SRB assay; type: functional
[18] = system: SN12C; assay: Growth inhibition of human SN12C cells after 48 hrs by SRB assay; type: functional
[19] = system: SR; assay: Growth inhibition of human SR cells after 48 hrs by SRB assay; type: functional
[20] = system: NCI-H322M; assay: Growth inhibition of human NCI-H322M cells after 48 hrs by SRB assay; type: functional
[21] = system: SK-OV-3; assay: Growth inhibition of human SKOV3 cells after 48 hrs by SRB assay; type: functional; settings: SK-OV-3, 48 h
[22] = Growth inhibition of human OVCAR5 cells after 48 hrs by SRB assay; type: functional; settings: OVCAR-5, 48 h
[23] = system: NCI-H522; assay: Growth inhibition of human NCI-H522 cells after 48 hrs by SRB assay; type: functional; settings: NCI-H522, 48 h
[24] = system: MCF7; assay: Growth inhibition of human MCF7 cells assessed as cell viability at 4 uM after 24 hrs by MTT assay; type: functional, cell-based
[25] = system: SNB-75; assay: Growth inhibition of human SNB75 cells after 48 hrs by SRB assay; type: functional; settings: SNB-75, 48 h
[26] = system: SK-MEL-5; assay: Growth inhibition of human SK-MEL-5 cells after 48 hrs by SRB assay; type: functional; settings: SK-MEL-5, 48 h
[27] = system: MDA-MB-468; assay: Growth inhibition of human MDA-MB-468 cells after 48 hrs by SRB assay; type: functional; settings: MDA-MB-468, 48 h
[28] = system: K562; assay: Growth inhibition of human K562 cells after 48 hrs by SRB assay; type: functional; settings: K562, 48 h
[29] = Growth inhibition of human SF539 cells after 48 hrs by SRB assay; type: functional; settings: SF-539, 48 h
[30] = system: PC-3; assay: Growth inhibition of human PC3 cells after 48 hrs by SRB assay; type: functional; settings: PC-3, 48 h
[31] = Growth inhibition of human NCI-ADR-RES cells after 48 hrs by SRB assay; type: functional
[32] = system: SK-MEL-2; assay: Growth inhibition of human SK-MEL-2 cells after 48 hrs by SRB assay; type: functional; settings: SK-MEL-2, 48 h
[33] = system: CCRF-CEM; assay: Growth inhibition of human CCRF-CEM cells after 48 hrs by SRB assay; type: functional
[34] = system: CAKI-1; assay: Growth inhibition of human Caki1 cells after 48 hrs by SRB assay; type: functional; settings: CAKI-1, 48 h
[35] = system: U-251; assay: Growth inhibition of human U251 cells after 48 hrs by SRB assay; type: functional; settings: U-251, 48 h
[36] = Growth inhibition of human OVCAR3 cells after 48 hrs by SRB assay; type: functional; settings: OVCAR-3, 48 h
[37] = system: MCF7; assay: Cell cycle arrest in human MCF7 cells assessed as accumulation at G2/M phase at 4 uM after 24 hrs by propidium iodide staining-based flow cytometry (reference value: 15.79%); type: functional
[38] = system: SK-MEL-28; assay: Growth inhibition of human SK-MEL-28 cells after 48 hrs by SRB assay; type: functional; settings: SK-MEL-28, 48 h
[39] = Growth inhibition of human MOLT4 cells after 48 hrs by SRB assay; type: functional; settings: MOLT-4, 48 h
[40] = system: SF-268; assay: Growth inhibition of human SF268 cells after 48 hrs by SRB assay; type: functional; settings: SF-268, 48 h
[41] = system: 786-0; assay: Growth inhibition of human 786-0 cells after 48 hrs by SRB assay; type: functional; settings: 786-0, 48 h
[42] = system: NCI-H23; assay: Growth inhibition of human NCI-H23 cells after 48 hrs by SRB assay; type: functional; settings: NCI-H23, 48 h
[43] = Growth inhibition of human OVCAR4 cells after 48 hrs by SRB assay; type: functional; settings: OVCAR-4, 48 h
[44] = Growth inhibition of human LOXIMVI cells after 48 hrs by SRB assay; type: functional; settings: LOX IMVI
[45] = system: A498; assay: Growth inhibition of human A498 cells after 48 hrs by SRB assay; type: functional; settings: A498, 48 h
[46] = system: A549; assay: Growth inhibition of human A549 cells after 48 hrs by SRB assay; type: functional; settings: A549, 48 h
[47] = system: HT-29; assay: Growth inhibition of human HT-29 cells after 48 hrs by SRB assay; type: functional; settings: HT-29, 48 h
[48] = system: M14; assay: Growth inhibition of human M14 cells after 48 hrs by SRB assay; type: functional; settings: M14, 48 h
[49] = Growth inhibition of human SF295 cells after 48 hrs by SRB assay; type: functional; settings: SF-295, 48 h
[50] = system: Malme-3M; assay: Growth inhibition of human MALME-3M cells after 48 hrs by SRB assay; type: functional
[51] = Growth inhibition of human HOP92 cells after 48 hrs by SRB assay; type: functional; settings: HOP-92, 48 h
[52] = Growth inhibition of human RXF393 cells after 48 hrs by SRB assay; type: functional; settings: RXF 393, 48 h
[53] = system: MCF7; assay: Growth inhibition of human MCF7 cells after 48 hrs by SRB assay; type: functional; settings: MCF7, 48 h
[54] = system: KM12; assay: Growth inhibition of human KM12 cells after 48 hrs by SRB assay; type: functional; settings: KM12, 48 h
[55] = system: MCF7; assay: Cell cycle arrest in human MCF7 cells assessed as accumulation at G0/G1 phase at 4 uM after 24 hrs by propidium iodide staining-based flow cytometry (reference value: 64.04%); type: functional
[56] = Growth inhibition of human UACC257 cells after 48 hrs by SRB assay; type: functional; settings: UACC-257, 48 h
[57] = Growth inhibition of human BT549 cells after 48 hrs by SRB assay; type: functional; settings: BT-549, 48 h
[58] = Growth inhibition of human Hs578T cells after 48 hrs by SRB assay; type: functional; settings: Hs-578T
[59] = system: TK-10; assay: Growth inhibition of human TK10 cells after 48 hrs by SRB assay; type: functional; settings: TK-10, 48 h
[60] = system: HL-60(TB); assay: Growth inhibition of human HL-60(TB) cells after 48 hrs by SRB assay; type: functional; settings: HL-60, 48 h
[61] = system: SNB-19; assay: Growth inhibition of human SNB19 cells after 48 hrs by SRB assay; type: functional; settings: SNB-19, 48 h
[62] = system: T47D; assay: Growth inhibition of human T47D cells after 48 hrs by SRB assay; type: functional
[63] = system: RPMI-8226; assay: Growth inhibition of human RPMI8226 cells after 48 hrs by SRB assay; type: functional; settings: RPMI-8226, 48 h
[64] = Growth inhibition of human UO31 cells after 48 hrs by SRB assay; type: functional; settings: UO-31, 48 h

COc1ccc(-c2nc3ncccn3c2/C=C/C(=O)c2cc(OC)c(OC)c(OC)c2)cc1
GI50 [1]: 1880 nM | GI50 [2]: 2720 nM | GI50 [3]: 2550 nM | GI50 [4]: 2200 nM | GI50 [5]: 1750 nM | GI50 [6]: 1380 nM | GI50 [7]: 2280 nM | Activity [8]: 8.43% | GI50 [9]: 2830 nM | GI50 [10]: 1700 nM | GI50 [11]: 1570 nM | GI50 [12]: 1170 nM | GI50 [13]: 1580 nM | GI50 [14]: 2730 nM | GI50 [15]: 2280 nM | GI50 [16]: 1430 nM | GI50 [17]: 1610 nM | GI50 [18]: 2560 nM | GI50 [19]: 1530 nM | GI50 [20]: 1760 nM | GI50 [21]: 2500 nM | GI50 [22]: 1530 nM | GI50 [23]: 1660 nM | inhibition [24]: Active | GI50 [25]: 1890 nM | GI50 [26]: 1520 nM | GI50 [27]: 1810 nM | GI50 [28]: 2630 nM | GI50 [29]: 1360 nM | GI50 [30]: 4.32 µM | GI50 [31]: 1560 nM | GI50 [32]: 1870 nM | GI50 [33]: 4.01 µM | GI50 [34]: 1580 nM | GI50 [35]: 1290 nM | GI50 [36]: 1750 nM | Activity [37]: 1.53% | GI50 [38]: 1650 nM | GI50 [39]: 3.1 µM | GI50 [40]: 2360 nM | GI50 [41]: 1840 nM | GI50 [42]: 1350 nM | GI50 [43]: 2910 nM | GI50 [44]: 1460 nM | GI50 [45]: 2130 nM | GI50 [46]: 2710 nM | GI50 [47]: 2190 nM | GI50 [48]: 1530 nM | GI50 [49]: 2390 nM | GI50 [50]: 1810 nM | GI50 [51]: 1430 nM | GI50 [52]: 1110 nM | GI50 [53]: 1140 nM | GI50 [54]: 1610 nM | Activity [55]: 90.04% | GI50 [56]: 1820 nM | GI50 [57]: 1450 nM | GI50 [58]: 1910 nM | GI50 [59]: 2880 nM | GI50 [60]: 2520 nM | GI50 [61]: 3.01 µM | GI50 [62]: 2530 nM | GI50 [63]: 2210 nM | GI50 [64]: 510 nM

Reference: ChEMBL document CHEMBL3217491, “Design, synthesis and biological evaluation of imidazopyridine/pyrimidine-chalcone derivatives as potential anticancer agents” (2010)
